Test results published in patent US20250235417A1, “Compositions for acute and chronic wounds” (DEBx Medical Holding B.V., priority 2021, published 2025).

Columns and labels:
patients' biofilm = test: Tests performed on patients' biofilm
[1] = estimated / in the order of; cited from earlier work
[2] = type: physicochemical
Description: The pKa and the Ka values are based on literature references, which include: • E. P. Serjeant and B. Dempsey (eds.), Ionization Constants of Organic Acids in Solution, IUPAC Chemical Data Series No. 23, Pergamon Press, Oxford, UK, 1979; • Part of Journal of Research of the National Bureau of Standards. Volume 31, December 1943, pH VALUES OF ACID.SALT MIXTURES OF SOME AROMATIC SULFONIC ACIDS AT VARIOUS TEMPERATURES AND A CRITERION OF COMPLETENESS OF DISSOCIATION, By Walter j. Hamer. Gladys D. Pinching, and S. F. Acree; • Guthrie, J. P. Hydrolysis of esters of oxy acids: pKa values for strong acids. Can. J. Chem. 1978, 56, 2342-2354;

Compound	antimicrobial activity (patients' biofilm)	acid dissociation constant, Ka [1]	acid form remaining undissociated upon contact with the biofilm [2]
CCc1ccc(S(=O)(=O)O)cc1 [4-Ethylbenzenesulphonic acid]	considerable antimicrobial activity	~600	–
Cc1cccc(S(=O)(=O)O)c1 [3-methylbenzenesulphonic acid]	considerable antimicrobial activity	~600	–
CCCCCCCCCCCCc1ccc(S(=O)(=O)O)cc1 [4-dodecylbenzenesulphonic acid]	–	2-3	about 57%
